This is an account of results in PMC5282848, “Ancient coexistence of norepinephrine, tyramine, and octopamine signaling in bilaterians” (BMC Biology, 2017).

What all share (experiment): Ca2+ mobilization, GFP-apoaequorin luminescence in CHO-K1 with Gα-16
Common to all, as to assay type: cell-based
(In general: A change in cytosolic calcium serves as a functional read-out for many receptors and channels.)

The target in assay [1] is T1, Platynereis dumerilii α1-adrenergic receptor (Platynereis dumerilii, UniProt A0A1J0F5Z2).
T1 construct: full-length in pcDNA3.1(+), expressed in CHO-K1 with Gα-16 and GFP-apoaequorin
T1 sequence (A0A1J0F5Z2 1-651): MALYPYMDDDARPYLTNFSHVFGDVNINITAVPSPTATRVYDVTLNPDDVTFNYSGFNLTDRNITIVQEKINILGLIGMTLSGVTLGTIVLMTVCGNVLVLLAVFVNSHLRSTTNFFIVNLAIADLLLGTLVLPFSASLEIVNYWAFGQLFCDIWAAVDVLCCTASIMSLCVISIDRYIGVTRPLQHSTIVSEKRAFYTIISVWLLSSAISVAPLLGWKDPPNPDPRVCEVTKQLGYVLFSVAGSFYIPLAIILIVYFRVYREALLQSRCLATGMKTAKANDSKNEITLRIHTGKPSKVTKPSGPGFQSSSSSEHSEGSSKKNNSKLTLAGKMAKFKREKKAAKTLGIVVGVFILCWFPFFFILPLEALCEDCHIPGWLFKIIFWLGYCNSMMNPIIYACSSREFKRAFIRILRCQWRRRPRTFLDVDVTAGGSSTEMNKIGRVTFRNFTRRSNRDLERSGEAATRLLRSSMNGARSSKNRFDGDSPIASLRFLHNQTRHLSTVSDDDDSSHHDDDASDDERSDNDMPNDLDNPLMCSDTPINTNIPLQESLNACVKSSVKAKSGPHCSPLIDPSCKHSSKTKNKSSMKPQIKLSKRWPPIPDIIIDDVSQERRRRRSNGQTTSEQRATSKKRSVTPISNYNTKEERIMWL
As to conditions: read-out: Norepinephrine. The source says: Ca2+ mobilization, GFP-apoaequorin luminescence in CHO-K1 with Gα-16 on Platynereis dumerilii α1-adrenergic receptor

Assay [2] concerns the target T2, Priapulus caudatus α1-adrenergic (Priapulus caudatus, UniProt A0ABM1DSS1).
T2 construct: gene LOC106805782; full-length in pcDNA3.1(+), expressed in CHO-K1 with Gα-16 and GFP-apoaequorin
T2 sequence (A0ABM1DSS1 1-550): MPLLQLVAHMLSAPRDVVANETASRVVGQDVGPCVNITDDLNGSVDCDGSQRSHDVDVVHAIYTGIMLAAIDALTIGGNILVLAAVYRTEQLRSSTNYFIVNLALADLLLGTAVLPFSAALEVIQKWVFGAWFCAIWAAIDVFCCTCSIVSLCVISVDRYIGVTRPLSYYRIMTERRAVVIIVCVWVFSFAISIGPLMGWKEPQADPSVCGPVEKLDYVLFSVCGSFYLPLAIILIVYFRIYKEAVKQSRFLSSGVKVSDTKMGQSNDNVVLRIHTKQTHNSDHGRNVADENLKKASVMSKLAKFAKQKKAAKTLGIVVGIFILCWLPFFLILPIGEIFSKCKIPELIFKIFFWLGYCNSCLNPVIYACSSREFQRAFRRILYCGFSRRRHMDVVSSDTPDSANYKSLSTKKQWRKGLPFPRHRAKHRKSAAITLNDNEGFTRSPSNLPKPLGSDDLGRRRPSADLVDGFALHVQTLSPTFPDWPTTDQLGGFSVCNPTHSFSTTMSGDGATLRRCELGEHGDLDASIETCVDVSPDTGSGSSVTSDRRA
Conditions: read-out: Norepinephrine. From the text: Ca2+ mobilization, GFP-apoaequorin luminescence in CHO-K1 with Gα-16 on Priapulus caudatus α1-adrenergic

For assay [3], the target named is T3, P. dumerilii α2-adrenergic receptor (Platynereis dumerilii, UniProt A0A1J0F5X6).
T3 construct: full-length in pcDNA3.1(+), expressed in CHO-K1 with Gα-16 and GFP-apoaequorin
T3 sequence (A0A1J0F5X6 1-619): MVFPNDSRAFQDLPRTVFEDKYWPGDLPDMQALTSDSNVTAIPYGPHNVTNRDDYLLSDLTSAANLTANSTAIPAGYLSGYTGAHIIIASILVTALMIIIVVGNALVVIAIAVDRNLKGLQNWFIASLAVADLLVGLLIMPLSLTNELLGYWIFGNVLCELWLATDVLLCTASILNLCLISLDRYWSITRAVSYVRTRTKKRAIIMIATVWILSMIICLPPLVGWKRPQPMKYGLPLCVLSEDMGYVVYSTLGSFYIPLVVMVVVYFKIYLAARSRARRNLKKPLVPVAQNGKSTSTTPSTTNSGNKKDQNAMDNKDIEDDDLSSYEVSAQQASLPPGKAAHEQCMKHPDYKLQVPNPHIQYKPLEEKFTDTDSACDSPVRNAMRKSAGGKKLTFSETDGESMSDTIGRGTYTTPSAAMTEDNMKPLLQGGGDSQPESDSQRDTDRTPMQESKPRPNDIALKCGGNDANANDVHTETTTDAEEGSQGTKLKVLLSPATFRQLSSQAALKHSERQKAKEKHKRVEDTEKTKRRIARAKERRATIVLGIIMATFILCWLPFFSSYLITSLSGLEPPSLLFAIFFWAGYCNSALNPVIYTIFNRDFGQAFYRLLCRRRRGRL
The source says:
Ca2+ mobilization, GFP-apoaequorin luminescence in CHO-K1 with Gα-16 on P. dumerilii α2-adrenergic receptor

In assay [4] the target is T4, S. kowalevskii α1-adrenergic (Saccoglossus kowalevskii, UniProt A0A0U2M149).
T4 construct: full-length in pcDNA3.1(+), expressed in CHO-K1 with Gα-16 and GFP-apoaequorin
T4 sequence (A0A0U2M149 1-774): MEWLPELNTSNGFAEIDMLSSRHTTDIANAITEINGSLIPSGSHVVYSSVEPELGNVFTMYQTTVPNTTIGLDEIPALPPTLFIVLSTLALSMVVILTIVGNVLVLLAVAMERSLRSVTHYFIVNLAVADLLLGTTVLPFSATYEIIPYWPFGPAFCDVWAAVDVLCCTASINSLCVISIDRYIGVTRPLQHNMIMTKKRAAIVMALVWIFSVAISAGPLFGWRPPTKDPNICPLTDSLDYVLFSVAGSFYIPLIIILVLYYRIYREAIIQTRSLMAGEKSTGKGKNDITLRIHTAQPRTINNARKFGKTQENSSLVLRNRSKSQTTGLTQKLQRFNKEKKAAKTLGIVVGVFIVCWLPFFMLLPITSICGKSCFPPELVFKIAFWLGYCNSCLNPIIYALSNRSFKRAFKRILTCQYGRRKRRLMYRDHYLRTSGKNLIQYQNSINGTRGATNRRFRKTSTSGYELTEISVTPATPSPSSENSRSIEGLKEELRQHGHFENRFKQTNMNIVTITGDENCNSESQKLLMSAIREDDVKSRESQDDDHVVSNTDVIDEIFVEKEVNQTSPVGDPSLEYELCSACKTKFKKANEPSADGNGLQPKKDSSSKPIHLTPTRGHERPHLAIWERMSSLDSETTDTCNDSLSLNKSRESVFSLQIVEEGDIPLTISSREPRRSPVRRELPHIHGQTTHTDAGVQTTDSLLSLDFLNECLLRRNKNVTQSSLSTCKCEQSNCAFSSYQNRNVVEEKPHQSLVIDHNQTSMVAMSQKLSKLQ
Conditions: read-out: Norepinephrine. The source says: Ca2+ mobilization, GFP-apoaequorin luminescence in CHO-K1 with Gα-16 on S. kowalevskii α1-adrenergic

Assay [5] has as its target T5, P. caudatus α2-adrenergic (Priapulus caudatus, UniProt A0ABM1F9E8).
T5 construct: gene LOC106820961; full-length in pcDNA3.1(+), expressed in CHO-K1 with Gα-16 and GFP-apoaequorin
T5 sequence (A0ABM1F9E8 1-470): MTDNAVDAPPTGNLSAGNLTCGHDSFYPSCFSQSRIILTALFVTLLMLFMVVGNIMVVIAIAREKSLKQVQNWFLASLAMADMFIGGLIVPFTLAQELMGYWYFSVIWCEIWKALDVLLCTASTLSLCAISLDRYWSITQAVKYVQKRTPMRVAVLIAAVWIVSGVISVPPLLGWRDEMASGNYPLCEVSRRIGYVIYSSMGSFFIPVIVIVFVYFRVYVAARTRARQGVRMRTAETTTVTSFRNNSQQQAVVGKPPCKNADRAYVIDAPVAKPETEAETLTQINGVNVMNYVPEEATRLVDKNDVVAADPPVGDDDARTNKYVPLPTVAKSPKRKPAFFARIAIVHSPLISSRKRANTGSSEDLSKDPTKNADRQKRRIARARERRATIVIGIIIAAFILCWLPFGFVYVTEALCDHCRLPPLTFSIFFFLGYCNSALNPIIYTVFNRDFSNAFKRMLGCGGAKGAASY
From the text:
Ca2+ mobilization, GFP-apoaequorin luminescence in CHO-K1 with Gα-16 on P. caudatus α2-adrenergic

The target of assay [6] is T6, S. kowalevskii α2-adrenergic (Saccoglossus kowalevskii, UniProt A0ABM0GQ86).
T6 construct: gene LOC100373264; full-length in pcDNA3.1(+), expressed in CHO-K1 with Gα-16 and GFP-apoaequorin
T6 sequence (A0ABM0GQ86 1-464): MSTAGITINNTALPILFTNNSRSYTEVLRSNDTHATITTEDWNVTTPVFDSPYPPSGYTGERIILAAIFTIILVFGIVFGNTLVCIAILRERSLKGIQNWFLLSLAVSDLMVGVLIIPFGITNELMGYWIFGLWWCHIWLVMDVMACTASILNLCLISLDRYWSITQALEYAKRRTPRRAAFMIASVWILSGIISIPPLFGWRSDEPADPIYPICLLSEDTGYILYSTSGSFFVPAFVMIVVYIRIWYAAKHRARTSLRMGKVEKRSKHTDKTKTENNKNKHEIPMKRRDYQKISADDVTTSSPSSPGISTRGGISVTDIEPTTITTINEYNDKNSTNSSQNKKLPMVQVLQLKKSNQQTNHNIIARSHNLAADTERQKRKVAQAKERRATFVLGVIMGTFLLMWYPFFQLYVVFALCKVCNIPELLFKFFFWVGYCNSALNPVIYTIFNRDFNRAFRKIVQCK
As to conditions: read-out: Epinephrine. From the text:
Ca2+ mobilization, GFP-apoaequorin luminescence in CHO-K1 with Gα-16 on S. kowalevskii α2-adrenergic

Where two headings read alike, the source gives them in different places.

Turning to `NC[C@H](O)c1ccc(O)c(O)c1` [norepinephrine], the EC50 in assay [1] was found to be 0.21 µM; in assay [2] it was 0.0075 µM; in assay [3] (read-out: Norepinephrine), 0.0082 µM; in assay [4] it was 0.017 µM; in assay [5] (read-out: Norepinephrine), 0.47 µM.

Regarding `CNC[C@H](O)c1ccc(O)c(O)c1` [epinephrine], the EC50 in assay [3] (read-out: Epinephrine) worked out at 0.011 µM; in assay [6], 0.0023 µM; in assay [5] (read-out: Epinephrine), 0.45 µM.
